These are literature values, as cited in article PMC3103655 (Journal of natural products, 2011).

pIC50: −log10 of the molar value.

Series [1] relates to cancer cells.
Series [2] has as its system MOLT-4 leukemia cells. Particulars: read-out: IC50, MOLT-4 leukemia cells.
Series [3] has as its system MCF7 breast cancer cells. Particulars: read-out: IC50, MCF7 breast cancer cells.
The test system of series [4] is KB cells. Particulars: 10 μg/mL.
Series [5] deals with LoVo cells. Particulars: 10 μg/mL.

As to dolastatin 10, in series [1], the “IC50 values against cancer cells” value is on record as “pico- to nanomolar”.
One may read the pIC50 as the negative decadic logarithm of the IC50, by convention in mol/L. On to hantupeptin A, for which the pIC50 was 7.49 in series [2] and 5.40 in series [3].
Regarding symplostatin 1, in series [1], the “IC50 values against cancer cells” value was “pico- to nanomolar”.
As to trungapeptin A, the “cytotoxicity, KB cells” value in series [4] is given as “did not display cytotoxicity”. The “cytotoxicity, LoVo cells” value in series [5] is “did not display cytotoxicity”.
